Measured values taken from patent US9023857B2, “Substituted 6-(2-aminobenzylamino)purine derivatives, their use as medicaments and preparations containing these compounds” (Univerzita Palackeho V Olomouci, priority 2009, dated 2015).

Experiments:
[1] = system: pRb (Ser780, Ser807, Thr821) in MCF7 cells; assay: Immunoblot analysis of pRb phosphorylation in MCF7 cells; assay type: cell-based, human; conditions: MCF7 cells treated for 24 h, immunoblot (FIG. 2)
Protocol: Cell were detached with rubber policeman and washed three times with ice-cold PBS and lysed in buffer (50 mM Tris, pH 7.4, 250 mM NaCl, 5 mM EDTA, 50 mM NaF, 1 mM Na3VO4, 1% Nonidet P40) containing mixture of protease and phosphatase inhibitors (Sigma-Aldrich St Louis, Mo., USA). 20 μg of total proteins were separated by SDS-polyacrylamide gel electrophoresis (SDS-PAGE) on 8% or 10% gels and transferred onto nitrocellulose membranes. Membranes were blocked in 5% milk and 0.1% Tween 20 in PBS and probed overnight with specific monoclonal antibodies or rabbit polyclonal sera. Primary antibodies specific for RNA polymerase II (all from Santa Cruz Biotechnology, California, USA) included: (i) N-20 used at 1 μg/ml, (ii) H14, specific for form phosphorylated at phosphoserine 5, used at 6 μg/ml and (iii) H5, specific for form phosphorylated at phosphoserine 2 used at 4 μg/ml. Additional primary mAb used in immunblots included (iv) anti-p53 (DO-1, in house) used at 1 μg/ml, (v) anti-p21^WAF1 (118, in house), used at 1 μg/ml), (vi) anti-actin (A-2066, Sigma-Aldrich St Louis, Mo., USA) used at 1 μg/ml, (vii) anti-T-antigen (419, in house), used at 1 μg/ml. All primary antibodies were diluted in PBS containing 5% powdered milk; 0.1% Tween 20. […]

[2] = system: p21^WAF1 protein in MCF-7 cells; assay: Induction of p21^WAF1 protein in MCF-7 cells (immunoblotting); assay type: cell-based, human
Protocol: (a) DO-1, DO-2 and 1801 monoclonal antibodies recognise the N-terminal region of p53 protein, monoclonal antibodies DO-11 and DO-12 recognise different epitopes in the core domain of p53 protein, monoclonal antibodies Bp53-10 and Pab421 recognise the C-terminal region of p53 protein. (b) Monoclonal antibody 118 recognises p21^WAF1.
For direct immunoblotting, total cellular protein lysates were prepared by harvesting cells in hot Laemmli electrophoresis sample buffer. Proteins were then separated by SDS-polyacrylamide gel electrophoresis (SDS-PAGE) on 10% gel and transferred onto a nitrocellulose membrane in Bio.Rad Mini Trans-Blott Electrophoretic Transfer Cell for 2 hrs at 4° C. applying 150 mA in transfer buffer ([…], 190 mM glycine and 20% methanol). Prestained molecular weight markers (Bio-Rad) were run in parallel. The blotted membranes were blocked in 5% milk and 0.1% Tween 20 in PBS for 2 hrs and probed overnight with monoclonal antibodies. After washing 3 times in PBS plus 0.1% Tween 20, peroxidase conjugated rabbit anti-mouse immunoglobulin antiserum (Dako, Denmark) diluted 1:1000 was used as the secondary antibody. To visualise peroxidase activity, ECL reagents from […] were used according to the manufacturer instructions.
MCF7-DDp53 cell line was derived from MCF-7 parental cell line by stable […] with plasmid pCMVneonDDp53 coding for dominant negative truncated mouse p53 protein including amino acid residues 1-14 and 302-390 under the control of at the CMV promoter. The control cell line MCF-7neo was derived by transfecting MCF-7 cells with pCMVneo vector. Transfections were performed using the Effectene transfection reagent (QIAGEN, Germany) as recommended by the supplier. Stable transfectants were selected at 2 mg/ml G418 sulphate (Life Technologies). The expression of Ddp53 miniprotein in MCF-7Ddp53 cell line has been examined by immunoblotting with Bp53-10 monoclonal antibody. Independently isolated MCF-7Dp53 clones 9, 12 and 14 expressing high levels of Ddp53 miniprotein and MCF-7-neo clones 3, 4 and 7 were used. […]

[3] = system: P388D1 leukemia transplanted intraperitoneally; assay: In vivo anticancer activity, survival model of P388D1 leukemia; conditions: DBA-2 mice, orally twice daily 250 mg/kg, Days 1-3 and 7-9
Protocol: DBA-2 mice were used as a host. One day following the leukemia transplantation, treatment with 105 was initiated. […] Survival analysis of treated animals (10 mice/group) was preformed in comparison with vehicle treated mice using Kaplan-Meier method and the significance was evaluated by the log-rank test. Body weight of experimental animals was evaluated in parallel in order to reflect toxicity and efficacy of therapy. Comparative analysis of body weight was performed using […].

HSV-1 = assay: Plaque number reduction assay, HSV-1 on HFFF; assay type: cell-based, Herpes simplex virus type 1 strain 17
MV = MV syncytium reduction assay in B95a cells; assay type: cell-based, Measles virus wildtype strain WTFb
SV40 large T-antigen = assay type: cell-based
CDK9/cyclin T = CDK9/cyclin T (Homo sapiens, UniProt P50750); assay: CDK inhibition assay, CDK9/cyclin T
[4] = system: human T-lymphoblastoid leukaemic cell line CEM; assay: In vitro cytotoxic activity (Calcein AM, 72 hours), CEM; conditions: read-out: Cytotoxicity IC50 CEM
[5] = system: cervical carcinoma cells HELA; assay: In vitro cytotoxic activity (Calcein AM, 72 hours), HELA; conditions: Homo sapiens, read-out: Cytotoxicity IC50 HeLa
[6] = system: human malignant melanoma G 361; assay: In vitro cytotoxic activity (Calcein AM, 72 hours), G 361; conditions: G-361, 72 h, read-out: Cytotoxicity IC50 G361
HAd4 = HAd4 yield reduction assay (multiple step growth curve) in A549 cells; conditions: culture medium; combination: until 72 hours after infection
[7] = system: A549 lung adenocarcinoma xenograft; assay: In vivo anticancer activity, human xenograft model of A549 lung adenocarcinoma

Sequence of CDK9/cyclin T (P50750 whole entry, species assumed): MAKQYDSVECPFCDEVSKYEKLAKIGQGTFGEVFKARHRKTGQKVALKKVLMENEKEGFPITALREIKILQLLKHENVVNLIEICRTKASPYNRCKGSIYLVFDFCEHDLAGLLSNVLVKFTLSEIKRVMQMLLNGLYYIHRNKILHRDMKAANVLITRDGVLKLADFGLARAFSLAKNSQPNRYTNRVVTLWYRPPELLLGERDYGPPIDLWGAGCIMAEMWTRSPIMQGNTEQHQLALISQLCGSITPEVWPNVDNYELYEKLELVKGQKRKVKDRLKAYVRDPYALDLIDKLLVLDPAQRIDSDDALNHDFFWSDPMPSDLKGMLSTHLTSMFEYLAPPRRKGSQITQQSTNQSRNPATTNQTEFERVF
Sequence of CDK9/cyclin T (O60563 whole entry partner, species assumed): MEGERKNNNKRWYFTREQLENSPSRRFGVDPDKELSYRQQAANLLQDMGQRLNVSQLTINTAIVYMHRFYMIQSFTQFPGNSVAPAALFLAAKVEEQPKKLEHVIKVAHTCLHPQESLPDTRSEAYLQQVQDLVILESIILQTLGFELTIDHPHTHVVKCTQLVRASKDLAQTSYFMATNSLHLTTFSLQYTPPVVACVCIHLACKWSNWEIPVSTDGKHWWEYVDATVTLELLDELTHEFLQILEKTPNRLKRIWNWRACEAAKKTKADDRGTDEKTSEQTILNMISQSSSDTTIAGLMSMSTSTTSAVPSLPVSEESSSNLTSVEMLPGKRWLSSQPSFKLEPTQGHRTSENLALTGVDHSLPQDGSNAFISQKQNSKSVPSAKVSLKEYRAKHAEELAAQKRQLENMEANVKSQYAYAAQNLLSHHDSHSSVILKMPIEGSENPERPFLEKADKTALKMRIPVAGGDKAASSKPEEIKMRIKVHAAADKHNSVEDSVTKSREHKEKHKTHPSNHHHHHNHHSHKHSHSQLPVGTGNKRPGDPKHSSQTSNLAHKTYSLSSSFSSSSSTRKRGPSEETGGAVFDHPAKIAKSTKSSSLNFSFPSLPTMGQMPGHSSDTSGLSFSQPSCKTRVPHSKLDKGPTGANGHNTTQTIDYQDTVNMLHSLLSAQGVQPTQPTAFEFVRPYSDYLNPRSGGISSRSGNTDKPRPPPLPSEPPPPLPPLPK

SMILES: CCC(CO)Nc1nc(NCc2ccccc2N)c2ncn(C(C)C)c2n1 (stereo not drawn) [Compound 105, 2-({6-[(2-aminobenzyl)amino]-9-isopropyl-9H-purin-2-yl}amino)butan-1-ol]
- phosphorylation of pRb at Ser780, Ser807 and Thr821 [1]: Reduced phosphorylation
- p21^WAF1 level ([2]; MCF7 cells treated for 24 h, immunoblot (FIG. 2)): Induction
- p21^WAF1 induction ([2]; MCF-7Ddp53 clones (dominant-negative Ddp53 miniprotein)): no p21^WAF1 induction
- time at which enhanced level of p21^WAF1 protein was observed ([2]; MCF-7 cells): 12 h
- body weight of treated animals [3]: reducing body weight
- mean survival time [3]: 15.4 days
- survival analysis (Kaplan-Meier, log-rank) ([3]; P=0.0409 versus vehicle): significantly better survival
- inhibition of virus replication (in words) (HSV-1): inhibited replication
- inhibition of virus replication (in words) (MV): ineffective
- level of large T-antigen (SV40 large T-antigen): reduced level
- IC50 (CDK9/cyclin T): 0.005 µM
- IC50 [4]: 4.5 µM
- IC50 [5]: 2.5 µM
- IC50 [6]: 8 µM
- appearance of extracellular virus (HAd4): considerably delayed
- tolerability in animals ([7]; CD-1 SCID mice, orally twice daily 150 mg/kg, Days 1-3 and 7-9): good tolerability
- tumor volume analysis ([7]; CD-1 SCID mice, orally twice daily 150 mg/kg, P=0.0409 versus vehicle): significantly smaller tumors
- mean survival time ([7]; as printed in the A549 tumor volume paragraph): 15.4 days
